Our source for the % of inhibition, % of control and % binding values is ChEMBL document CHEMBL5465560, “Selectivity Literature for EUbOPEN Chemogenomic Library” (2024).

Molecules are shown by their SMILES.

In experiment [1] the target is Dual specificity mitogen-activated protein kinase kinase 2 (Homo sapiens) (UniProt P36507). Nature of the experiment: Selectivity interaction (Rxn Biology Kinase assay) EUB0001632a MAP2K2. Particulars: at 10 µM.
Experiment [2] deals with cGMP-inhibited 3',5'-cyclic phosphodiesterase 3A (Homo sapiens, UniProt Q14432). Kind of experiment: Selectivity interaction (Eurofins safety panel) EUB0001564a PDE3A. Particulars: at 10 µM.
Sequence of cGMP-inhibited 3',5'-cyclic phosphodiesterase 3A (Q14432 whole entry): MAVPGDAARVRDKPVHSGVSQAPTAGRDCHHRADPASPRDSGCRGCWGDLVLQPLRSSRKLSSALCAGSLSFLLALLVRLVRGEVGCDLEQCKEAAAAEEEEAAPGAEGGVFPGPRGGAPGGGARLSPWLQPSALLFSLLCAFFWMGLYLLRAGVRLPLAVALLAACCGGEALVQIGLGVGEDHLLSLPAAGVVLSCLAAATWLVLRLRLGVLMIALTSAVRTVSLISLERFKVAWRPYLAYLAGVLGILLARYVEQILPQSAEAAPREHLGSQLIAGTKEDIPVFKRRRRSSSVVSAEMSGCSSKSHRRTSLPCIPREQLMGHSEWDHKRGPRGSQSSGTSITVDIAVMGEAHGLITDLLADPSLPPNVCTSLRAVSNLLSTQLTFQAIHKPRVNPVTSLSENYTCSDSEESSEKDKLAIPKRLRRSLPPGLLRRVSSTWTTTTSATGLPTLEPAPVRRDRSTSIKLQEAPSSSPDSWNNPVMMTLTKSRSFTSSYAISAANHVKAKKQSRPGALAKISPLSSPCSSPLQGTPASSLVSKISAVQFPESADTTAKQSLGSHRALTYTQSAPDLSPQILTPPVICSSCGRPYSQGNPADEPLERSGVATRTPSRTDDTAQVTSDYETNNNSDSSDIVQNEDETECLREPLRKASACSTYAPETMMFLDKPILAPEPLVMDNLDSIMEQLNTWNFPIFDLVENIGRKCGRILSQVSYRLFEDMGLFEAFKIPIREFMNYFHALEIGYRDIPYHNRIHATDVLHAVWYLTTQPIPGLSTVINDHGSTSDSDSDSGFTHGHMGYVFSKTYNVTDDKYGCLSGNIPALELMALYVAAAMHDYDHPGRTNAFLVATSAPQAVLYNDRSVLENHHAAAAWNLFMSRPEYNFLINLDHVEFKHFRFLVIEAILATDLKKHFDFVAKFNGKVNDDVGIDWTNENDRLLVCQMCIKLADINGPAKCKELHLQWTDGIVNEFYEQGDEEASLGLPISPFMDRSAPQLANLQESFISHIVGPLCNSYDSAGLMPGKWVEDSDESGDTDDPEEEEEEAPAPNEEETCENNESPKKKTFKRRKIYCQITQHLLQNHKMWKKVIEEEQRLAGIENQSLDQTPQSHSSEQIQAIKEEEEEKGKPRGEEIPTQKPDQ
Experiment [3] deals with Tyrosine-protein kinase Fes/Fps (Homo sapiens) (UniProt P07332). Nature of the experiment: Selectivity interaction (KinomeScan (DiscoverX)) EUB0001619a FES. Particulars: at 1 µM.
Sequence of Tyrosine-protein kinase Fes/Fps (Homo sapiens) (P07332 whole entry): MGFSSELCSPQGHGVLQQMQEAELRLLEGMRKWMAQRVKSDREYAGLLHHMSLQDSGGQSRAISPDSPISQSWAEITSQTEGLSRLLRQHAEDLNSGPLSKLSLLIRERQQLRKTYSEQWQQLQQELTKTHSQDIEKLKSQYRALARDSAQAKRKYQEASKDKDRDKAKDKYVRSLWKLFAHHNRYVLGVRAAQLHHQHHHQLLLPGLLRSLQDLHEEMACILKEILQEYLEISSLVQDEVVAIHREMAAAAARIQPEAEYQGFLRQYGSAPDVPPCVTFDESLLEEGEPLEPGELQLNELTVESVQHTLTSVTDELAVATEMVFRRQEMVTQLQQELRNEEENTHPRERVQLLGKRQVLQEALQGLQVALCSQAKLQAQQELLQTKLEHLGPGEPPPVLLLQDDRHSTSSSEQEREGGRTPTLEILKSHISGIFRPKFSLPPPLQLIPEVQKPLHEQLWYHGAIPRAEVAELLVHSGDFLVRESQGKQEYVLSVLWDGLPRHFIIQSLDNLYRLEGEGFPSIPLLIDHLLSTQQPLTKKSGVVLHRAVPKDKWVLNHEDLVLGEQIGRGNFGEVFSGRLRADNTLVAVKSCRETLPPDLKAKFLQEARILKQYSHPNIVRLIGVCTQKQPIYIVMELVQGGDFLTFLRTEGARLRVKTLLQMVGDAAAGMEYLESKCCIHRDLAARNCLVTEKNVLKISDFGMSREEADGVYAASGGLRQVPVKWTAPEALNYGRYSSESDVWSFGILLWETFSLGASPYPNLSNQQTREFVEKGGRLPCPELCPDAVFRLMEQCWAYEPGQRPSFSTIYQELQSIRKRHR
The target of experiment [4] is Activin receptor type-2A (Homo sapiens) (UniProt P27037). Nature of the experiment: Selectivity interaction (KinomeScan (DiscoverX)) EUB0000666a ACVR2A. Particulars: at 10 µM.
Sequence of Activin receptor type-2A (Homo sapiens) (P27037 whole entry): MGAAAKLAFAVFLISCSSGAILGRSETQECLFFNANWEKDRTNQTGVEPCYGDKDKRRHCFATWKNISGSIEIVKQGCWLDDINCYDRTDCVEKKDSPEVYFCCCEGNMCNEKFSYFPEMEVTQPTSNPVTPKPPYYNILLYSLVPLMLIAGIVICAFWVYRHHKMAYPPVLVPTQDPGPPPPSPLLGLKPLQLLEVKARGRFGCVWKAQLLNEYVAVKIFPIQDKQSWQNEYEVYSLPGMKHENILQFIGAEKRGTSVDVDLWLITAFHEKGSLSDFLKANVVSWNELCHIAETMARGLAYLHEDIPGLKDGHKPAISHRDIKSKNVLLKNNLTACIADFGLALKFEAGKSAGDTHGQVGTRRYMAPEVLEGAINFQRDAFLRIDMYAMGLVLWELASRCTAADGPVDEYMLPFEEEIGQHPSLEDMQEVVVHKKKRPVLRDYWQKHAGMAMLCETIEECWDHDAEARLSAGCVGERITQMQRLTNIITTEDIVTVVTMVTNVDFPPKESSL
Experiment [5] deals with Mitogen-activated protein kinase 7 (Homo sapiens) (UniProt Q13164). Nature of the experiment: Selectivity interaction (ActivX KiNativ screen (kinase selectivity in THP-1 cell lysates)) EUB0000639a MAPK7. It counts as subcellular. To be noted: lysate.
Sequence of Mitogen-activated protein kinase 7 (Homo sapiens) (Q13164 2-816 limits assumed): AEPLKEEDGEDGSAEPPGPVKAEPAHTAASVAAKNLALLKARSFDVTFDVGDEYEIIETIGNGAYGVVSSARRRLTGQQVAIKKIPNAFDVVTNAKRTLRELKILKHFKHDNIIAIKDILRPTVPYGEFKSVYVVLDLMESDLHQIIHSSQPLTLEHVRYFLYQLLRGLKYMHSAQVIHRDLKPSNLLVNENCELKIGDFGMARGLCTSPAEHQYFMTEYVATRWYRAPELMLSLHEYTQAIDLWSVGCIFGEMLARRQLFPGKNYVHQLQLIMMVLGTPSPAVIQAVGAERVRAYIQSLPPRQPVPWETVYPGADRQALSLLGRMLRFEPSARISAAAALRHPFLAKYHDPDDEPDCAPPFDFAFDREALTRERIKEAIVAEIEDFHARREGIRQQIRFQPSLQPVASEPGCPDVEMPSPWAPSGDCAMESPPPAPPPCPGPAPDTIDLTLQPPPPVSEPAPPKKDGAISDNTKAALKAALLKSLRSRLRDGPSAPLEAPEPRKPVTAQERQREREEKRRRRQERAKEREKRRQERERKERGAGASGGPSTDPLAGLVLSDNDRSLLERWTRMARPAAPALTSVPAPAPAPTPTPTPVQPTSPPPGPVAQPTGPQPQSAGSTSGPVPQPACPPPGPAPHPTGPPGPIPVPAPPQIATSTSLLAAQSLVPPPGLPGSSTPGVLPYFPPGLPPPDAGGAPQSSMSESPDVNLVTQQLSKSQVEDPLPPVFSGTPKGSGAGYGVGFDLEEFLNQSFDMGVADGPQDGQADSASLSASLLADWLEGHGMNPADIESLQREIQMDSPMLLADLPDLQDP
In experiment [6] the target is Tyrosine-protein kinase SYK (Homo sapiens, UniProt P43405). Kind of experiment: Selectivity interaction (ActivX KiNativ screen (kinase selectivity in THP-1 cell lysates)) EUB0000639a SYK. It counts as subcellular. Particulars: lysate, at 1 µM.
In experiment [7] the target is Epidermal growth factor receptor (Homo sapiens, UniProt P00533). Nature of the experiment: Selectivity interaction (Kinase panel (literature)) EUB0001199aCl EGFR. Particulars: at 1 µM.
Sequence of Epidermal growth factor receptor (P00533 whole entry): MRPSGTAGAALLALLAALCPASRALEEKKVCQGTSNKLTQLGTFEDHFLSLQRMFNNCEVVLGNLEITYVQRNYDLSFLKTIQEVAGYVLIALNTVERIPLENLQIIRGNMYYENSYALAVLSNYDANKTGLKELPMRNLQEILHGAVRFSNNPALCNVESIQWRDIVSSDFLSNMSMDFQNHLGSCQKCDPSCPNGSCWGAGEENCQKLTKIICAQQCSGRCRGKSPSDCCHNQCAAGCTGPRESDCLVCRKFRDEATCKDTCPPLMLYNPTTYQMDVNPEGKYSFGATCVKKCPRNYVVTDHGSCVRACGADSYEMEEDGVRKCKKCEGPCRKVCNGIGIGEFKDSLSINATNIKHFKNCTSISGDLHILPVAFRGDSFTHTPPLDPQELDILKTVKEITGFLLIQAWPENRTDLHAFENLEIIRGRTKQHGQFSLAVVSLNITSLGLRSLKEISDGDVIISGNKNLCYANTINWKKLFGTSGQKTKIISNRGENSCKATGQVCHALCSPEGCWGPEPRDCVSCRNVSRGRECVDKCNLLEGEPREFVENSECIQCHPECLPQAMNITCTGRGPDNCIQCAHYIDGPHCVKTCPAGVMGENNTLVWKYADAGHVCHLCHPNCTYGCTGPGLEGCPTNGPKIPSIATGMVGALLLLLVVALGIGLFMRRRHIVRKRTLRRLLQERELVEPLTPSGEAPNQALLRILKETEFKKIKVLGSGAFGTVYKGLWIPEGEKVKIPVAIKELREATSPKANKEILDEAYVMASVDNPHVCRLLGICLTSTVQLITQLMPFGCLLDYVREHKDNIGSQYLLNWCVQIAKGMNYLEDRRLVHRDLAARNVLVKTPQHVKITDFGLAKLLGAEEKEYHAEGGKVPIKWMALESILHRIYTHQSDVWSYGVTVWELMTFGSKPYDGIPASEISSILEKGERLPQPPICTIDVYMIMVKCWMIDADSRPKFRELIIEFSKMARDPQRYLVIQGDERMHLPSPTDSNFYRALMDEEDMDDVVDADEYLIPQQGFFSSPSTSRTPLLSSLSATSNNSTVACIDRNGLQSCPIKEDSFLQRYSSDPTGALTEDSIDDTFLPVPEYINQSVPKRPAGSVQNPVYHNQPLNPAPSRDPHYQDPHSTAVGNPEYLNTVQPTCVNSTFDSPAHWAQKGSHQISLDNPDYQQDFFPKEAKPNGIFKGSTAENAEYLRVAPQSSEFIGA
The target in experiment [8] is Calcium/calmodulin-dependent protein kinase kinase 2 (Homo sapiens) (UniProt Q96RR4). Nature of the experiment: Selectivity interaction (Ambit KINOMEscan and KiNATiv profiling in Jurkat cells) EUB0000090b CAMKK2. It counts as cell-based. To be noted: at 1 µM.
Experiment [9] addresses Casein kinase I isoform delta (Homo sapiens, UniProt P48730). Nature of the experiment: Selectivity interaction (Ambit KINOMEscan and KiNATiv profiling in Jurkat cells) EUB0000090b CSNK1D. It counts as cell-based. Particulars: at 1 µM.
For experiment [10], the target named is T1, Ephrin type-B receptor 2 (Homo sapiens) (UniProt P29323).
T1 sequence (whole entry): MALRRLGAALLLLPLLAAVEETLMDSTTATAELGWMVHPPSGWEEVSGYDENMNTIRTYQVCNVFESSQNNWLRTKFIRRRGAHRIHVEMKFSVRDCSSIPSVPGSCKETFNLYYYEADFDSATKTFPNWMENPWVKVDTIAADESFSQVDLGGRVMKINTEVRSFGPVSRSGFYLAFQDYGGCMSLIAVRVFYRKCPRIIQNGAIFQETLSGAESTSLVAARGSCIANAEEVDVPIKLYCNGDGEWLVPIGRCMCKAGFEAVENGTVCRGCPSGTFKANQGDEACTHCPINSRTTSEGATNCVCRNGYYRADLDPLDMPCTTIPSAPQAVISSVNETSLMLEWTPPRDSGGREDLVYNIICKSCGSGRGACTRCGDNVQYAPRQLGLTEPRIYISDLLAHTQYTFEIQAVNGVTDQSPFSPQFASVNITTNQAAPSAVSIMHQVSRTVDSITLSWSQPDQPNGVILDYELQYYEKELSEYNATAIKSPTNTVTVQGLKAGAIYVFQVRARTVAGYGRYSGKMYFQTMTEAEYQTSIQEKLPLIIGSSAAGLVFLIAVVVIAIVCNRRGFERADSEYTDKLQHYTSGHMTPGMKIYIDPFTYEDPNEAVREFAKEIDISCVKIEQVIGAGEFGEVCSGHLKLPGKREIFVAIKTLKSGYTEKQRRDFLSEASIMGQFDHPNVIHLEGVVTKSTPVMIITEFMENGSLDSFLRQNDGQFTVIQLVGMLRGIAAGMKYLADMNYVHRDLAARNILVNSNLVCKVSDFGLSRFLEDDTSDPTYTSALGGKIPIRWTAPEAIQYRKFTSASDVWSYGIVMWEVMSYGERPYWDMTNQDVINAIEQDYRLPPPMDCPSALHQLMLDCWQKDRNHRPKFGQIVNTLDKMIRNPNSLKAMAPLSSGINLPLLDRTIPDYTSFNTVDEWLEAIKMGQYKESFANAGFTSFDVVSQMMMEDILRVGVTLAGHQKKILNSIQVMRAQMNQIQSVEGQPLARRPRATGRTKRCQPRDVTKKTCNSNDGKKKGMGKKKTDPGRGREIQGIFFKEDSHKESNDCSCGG
Kind of experiment: Selectivity interaction (Ambit KINOMEscan and KiNATiv profiling in Jurkat cells) EUB0000090b EPHB2. It counts as cell-based. Particulars: at 1 µM.

For experiment [11], the target named is T1, Ephrin type-B receptor 2 (Homo sapiens). Kind of experiment: Selectivity interaction (KinomeScan (DiscoverX)) EUB0000092b EPHB2. To be noted: at 10 µM.
Experiment [12] concerns the target T2, Dual serine/threonine and tyrosine protein kinase (Homo sapiens) (UniProt Q6XUX3).
T2 sequence (whole entry): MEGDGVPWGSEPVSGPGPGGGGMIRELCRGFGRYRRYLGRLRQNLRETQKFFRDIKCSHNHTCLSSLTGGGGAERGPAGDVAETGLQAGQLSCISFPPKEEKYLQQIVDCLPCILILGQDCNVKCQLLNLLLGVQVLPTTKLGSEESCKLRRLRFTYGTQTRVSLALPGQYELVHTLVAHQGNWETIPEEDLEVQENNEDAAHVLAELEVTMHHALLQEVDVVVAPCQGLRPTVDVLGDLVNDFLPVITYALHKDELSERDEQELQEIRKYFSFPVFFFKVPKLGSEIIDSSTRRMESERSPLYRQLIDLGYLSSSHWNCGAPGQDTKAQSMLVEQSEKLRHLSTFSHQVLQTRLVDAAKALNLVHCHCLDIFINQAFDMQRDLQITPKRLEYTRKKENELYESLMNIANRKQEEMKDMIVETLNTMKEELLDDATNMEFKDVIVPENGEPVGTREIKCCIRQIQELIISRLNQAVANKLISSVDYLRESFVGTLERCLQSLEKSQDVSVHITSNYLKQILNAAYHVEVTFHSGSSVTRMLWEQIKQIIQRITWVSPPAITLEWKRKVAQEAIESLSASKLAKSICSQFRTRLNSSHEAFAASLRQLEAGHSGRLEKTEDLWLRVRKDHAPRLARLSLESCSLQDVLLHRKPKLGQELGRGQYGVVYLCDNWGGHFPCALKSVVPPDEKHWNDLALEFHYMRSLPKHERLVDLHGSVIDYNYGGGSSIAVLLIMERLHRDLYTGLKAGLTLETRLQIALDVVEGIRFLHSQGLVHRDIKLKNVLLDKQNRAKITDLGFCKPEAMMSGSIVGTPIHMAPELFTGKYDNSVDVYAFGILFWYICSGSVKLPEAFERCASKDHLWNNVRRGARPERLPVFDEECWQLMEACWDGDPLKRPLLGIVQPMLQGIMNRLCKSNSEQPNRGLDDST
Kind of experiment: Selectivity interaction (KinomeScan (DiscoverX)) EUB0000092b DSTYK. To be noted: at 10 µM.

The target in experiment [13] is cAMP-dependent protein kinase catalytic subunit alpha (Homo sapiens, UniProt P17612). Kind of experiment: Selectivity interaction (KinomeScan (DiscoverX)) EUB0000229b PRKACA. To be noted: at 10 µM.

Sequence of Dual specificity mitogen-activated protein kinase kinase 2 (Homo sapiens) (P36507 whole entry): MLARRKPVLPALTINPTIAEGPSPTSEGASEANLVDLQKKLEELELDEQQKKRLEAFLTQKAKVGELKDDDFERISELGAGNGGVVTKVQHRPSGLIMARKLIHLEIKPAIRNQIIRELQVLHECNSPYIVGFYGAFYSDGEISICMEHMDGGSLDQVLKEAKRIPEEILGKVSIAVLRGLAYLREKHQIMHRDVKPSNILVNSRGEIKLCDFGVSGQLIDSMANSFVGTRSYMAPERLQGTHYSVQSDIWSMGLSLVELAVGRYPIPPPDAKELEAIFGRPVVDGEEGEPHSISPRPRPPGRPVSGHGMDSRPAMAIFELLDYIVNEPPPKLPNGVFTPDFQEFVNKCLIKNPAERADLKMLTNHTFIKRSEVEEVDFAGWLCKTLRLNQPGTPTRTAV

`Cn1cc(-n2cnc3c(NCc4nc5cc(Cl)c(Cl)cc5[nH]4)nc(N4CCOCC4)nc32)cn1`: the % of inhibition in experiment [1] was 8.68%. Take `CC[C@@H](Nc1c(C#N)c(-c2ccc(-c3cccc(C)c3F)cc2)nc2cnccc12)C(=O)O` [BAY-091]: the % of inhibition in [2] is 74%. Take `N#Cc1cccc(-c2c[nH]c3ncnc(N4CCOCC4)c23)c1`: in experiment [3], the % of control was 100%. For the compound `O=C(NOC[C@H](O)CO)c1ccc(F)c(F)c1Nc1ccc(I)cc1F`, the % of control in [4] is 80%.

Turning to `CC[C@@H]1[C@H](F)C(=O)N[C@@H]1COc1nccc2cc(C(N)=O)c(OC)cc12` [ZIMLOVISERTIB], the % of inhibition in experiment [5] (at 0.01 µM) was -4.2%; in [5] (at 0.04 µM) it was 1.9%; in [5] (at 0.2 µM) it was -8.8%; in [5] (at 1 µM), -11.9%; in experiment [5] (at 5 µM) it was 15.7%; in [6], -0.8%. With `CN1Cc2nccc(-c3cn(C)nc3-c3ccc(F)cc3)c2C1=O`, in [7], the % of inhibition is 8%. For the compound `CN(C)C/C=C/C(=O)Nc1ccc(C(=O)N2CCCC(Nc3ncc(Cl)c(-c4c[nH]c5ccccc45)n3)C2)cc1` (configuration not stated), the % of control in experiment [8] worked out at 81%; in experiment [9], 80%; in [10] it was 100%. On to `CCC(=O)N1CCN(c2ccc(-n3c(=O)ccc4cnc5ccc(-c6cnc7ccccc7c6)cc5c43)cc2C(F)(F)F)CC1`, for which the figures for the % of control in [11] and in [12] were 100% and 28%, respectively. As to `COc1cc(N(C)c2ccnc3ccc(C(F)(F)F)cc23)cc(OC)c1OC`, the % binding in [13] was found to be 100%.
